Here are results for eleven molecules from patent US20240050950A1, “GRADIENT-BASED MICROFLUIDIC CIRCUIT, DEVICE, AND METHOD FOR PERFORMING AN ASSAY” (priority 2020, published 2024).

Like-named read-outs stand apart in the source and are kept apart here.

Series [1] concerns E. coli 541-15. Description: Gold standard broth microdilution test (OD600 growth curves). Type of series: cell-based. Here is the method: Bacteria culture medium, strains, growth, and broth microdilution test. Non-selective Mueller-Hinton (“MET”) culture medium was used for all bacterial culture. In detail, a colony of bacteria pre-cultured on an LB agar plate (Corning, NY) was taken from a freshly streaked plate and suspended into 3 mL of MEI broth, and cultured at 37° C. overnight (˜12 h). The concentration of bacterial suspension was adjusted using a UV-Vis spectrophotometer (NanoDrop, Thermo-Fisher; Wilmington, DE). To do this, the overnight culture medium was diluted by 10-fold serial dilutions in non-selective MEI culture medium to find the appropriate final concentration (1×10^6 CFU/mL) for the antimicrobial susceptibility testing assay.
The gold standard broth microdilution test was performed by preparing the antibiotic solutions at their final concentrations from a stock solution of each examined antibiotic. A fresh 200 μL volume of each antibiotic solution (prepared in MEI culture medium) was pipetted into each microwell of a 96 MicroWell plate. […] Standardized growth curve analysis was performed using a Bioscreen C automated plate reader (Growth Curves USA, NJ) by measuring OD600. […]

The conditions of series [2]: cited from earlier work.
The test system of the next series is E. coli LF82. Description: MVM2 antimicrobial R/S profile, Crohn's disease clinical isolate. Particulars: MVM2 platform, 0.1-100 μg/mL, FIG. 9F. Type of series: cell-based.
Series [3] deals with E. coli 541-15. Type of series: cell-based.
Procedure: To perform a small-molecule-based biological assay in the MVM^2 platform, four main steps to load the reagents are followed. Step-i involves loading a suspension of the biological species (often with a fluorescent chemical indicator) into the MVM^2 platform so that it is uniformly distributed throughout (see FIG. 6C(i) and FIGS. 11A-D for more details; this step mainly takes ˜3-5 min). In step-ii, small-molecule solutions at C0, 0.1 C0, and 0.01 C0 concentrations are loaded into the high, medium, and low positive main-channels, respectively, which diffuse into the corresponding microchambers through the connected side-channels (see FIG. 6C(ii) and FIGS. 12A-D for more details; this step mainly takes as equal as the small-molecule loading time).
Resazurin (5 wt %) was also added to the bacterial suspension to allow monitoring of the bacterial cell metabolism through an irreversible resazurin-resorufin enzymatic reduction reaction (i.e., with increasing bacterial growth, the higher resazurin reduction results in greater fluorescent intensity).
To further confirm these findings based on the bacterial cell metabolism obtained from resazurin reduction, the red fluorescent intensities were correlated with the green fluorescence directly associated with the GFP-labeled bacterial growth in the corresponding microchambers (FIG. 9A and FIG. 9B). […] Moreover, the gold standard broth microdilution technique (measuring the bacterial cell density—OD600—vs. the incubation time) was used to validate the MVM^2 microfluidic device functionality (FIG. 9E).
Similarly, bacterial cell metabolism and growth using the resazurin reduction assay was probed and changes in the number of GFP-labeled bacteria during the assay was monitored, as shown in FIGS. 29A-B and FIGS. 30A-B, respectively.
In series [4] the test system is wild-type S. cerevisiae strain (DBY12000). Description: Sugar test in MVM2 platform, 10 h yeast culture. Type of series: cell-based, Saccharomyces cerevisiae. Particulars: 0.007-7%. Here is the method: Yeast culture medium, strains, and growth. Yeast cell growth and standard laboratory manipulations were performed as described (Guthrie and Fink, “Guide to Yeast Genetics and Molecular and Cellular Biology,” Methods in Enzymol. Part C 351 Gulf Professional Publishing (2002), which is hereby incorporated by reference in its entirety). All media used was either minimal medium (YNB; 0.67% yeast nitrogen base without amino acids plus 2% indicated carbon sources) or rich medium (YP; 2% bacto peptone, 1% yeast extract, 2% indicated carbon sources). Additionally, for fluorescence microscopy, low-fluorescence medium was used (standard minimal medium with 2% glucose, except YNB is prepared without riboflavin or folic acid to reduce background fluorescence) (Sheff and Thorn, “Optimized Cassettes for Fluorescent Protein Tagging in Saccharomyces cerevisiae,” Yeast 21:661-670 (2004), which is hereby incorporated by reference in its entirety). The yeast strains used in this study were DBY12000 and DBY12549. DBY12000 is a wild-type yeast strain (i.e., WT) with a genotype of MATa prototrophic HAP1^+ derivative of FY4. […]
Wild-type vs. Glucose (outcome: not sensitive): In FIGS. 37A-D and FIG. 38, the WT yeast strain exposed with glucose and fructose, respectively. The yeast growth was monitored for any “yeast/sugar” pair within 10 h culture at two time points (t=0 and 10 h). […]

A further series relates to WT strain. Particulars: reported elsewhere; cited from earlier work.
For series [5], the system named is yrKHK S. cerevisiae yeast strain (DBY12549). Type of series: cell-based, Saccharomyces cerevisiae. The following applies: MVM2 platform. Here is the method: Yeast culture medium, strains, and growth. Yeast cell growth and standard laboratory manipulations were performed as described (Guthrie and Fink, “Guide to Yeast Genetics and Molecular and Cellular Biology,” Methods in Enzymol. Part C 351 Gulf Professional Publishing (2002), which is hereby incorporated by reference in its entirety). All media used was either minimal medium (YNB; 0.67% yeast nitrogen base without amino acids plus 2% indicated carbon sources) or rich medium (YP; 2% bacto peptone, 1% yeast extract, 2% indicated carbon sources). Additionally, for fluorescence microscopy, low-fluorescence medium was used (standard minimal medium with 2% glucose, except YNB is prepared without riboflavin or folic acid to reduce background fluorescence) (Sheff and Thorn, “Optimized Cassettes for Fluorescent Protein Tagging in Saccharomyces cerevisiae,” Yeast 21:661-670 (2004), which is hereby incorporated by reference in its entirety). The yeast strains used in this study were DBY12000 and DBY12549. DBY12000 is a wild-type yeast strain (i.e., WT) with a genotype of MATa prototrophic HAP1^+ derivative of FY4. DBY12549 or yrKHK is the mutant of the wild-type yeast strain, which is sensitive to fructose and has a genotype of MATa HAP1^+ can1Δ::TDH3pr-yrKHK.
Then, as an example, the platform was used to study recessive human metabolic diseases, specifically measuring sugar-phosphate toxicity. […]. The data obtained using the MVM^2 platform precisely pinpointed the binary ‘Yes/No’ sensitivity response of the yrKHK strain to fructose (Yes) and glucose (No), as shown in FIGS. 35A-C and FIGS. 36A-C, respectively.
In this case, the functionality and validity of the MVM^2 platform was used to test for these known “eukaryote cells/sugars” pairs. Consequently, sugars (fructose and glucose) were chosen as the small molecules to show the feasibility of testing small molecules on eukaryotic cells in the MVM^2 platform. A wild-type S. cerevisiae, DBY12000, yeast strain (namely, WT) and its genetically modified DBY12549 mutant (called yrKHK) were chosen.. […]

The subject of the next series is yrKHK strain. Particulars: reported elsewhere; cited from earlier work.
The test system of another series is E. coli. In words: MVM2 antimicrobial R/S profile, bovine mastitis E. coli isolate. Type of series: cell-based. Particulars: MVM2 platform, 0.1-100 μg/mL, FIG. 32. From the text:
Bovine with mastitis disease was also used to test the MVM^2 platform for deciphering their antimicrobial resistant/susceptibility profile. These antibiotics were chosen to investigate the most common and important antibiotics' mechanisms of action, including the disruption of bacterial cell wall and membrane synthesis, binding to RNA/DNA and interrupting nucleic acid replication, and inhibition of protein synthesis by binding to ribosome. FIG. 32 contains the following information: (i) the type of bacteria and tested antibiotic can be found at the left and right sides, respectively; (ii) each row includes 37 squares, as labeled at the top and have been categorized in 4 different categories—first square representing the microchamber as negative control (labeled with “N”), and every next twelve squares as respectively representing low, medium, and high positive ranges of antibiotic concentrations; (iii) the low, medium, and high ranges are included the concentration ranges of 0.1-1, 1-10, and 10-100 μg/mL; (iv) there are three types of squares: dark red, dark pink or light pink. […] The dark pink squares also show the microchambers which antimicrobial susceptibility was monitored at different trials. […]

Series [6] concerns E. coli, S. aureus, S. uberis, and K. pneumoniae. Description: MVM2 antimicrobial R/S profile, bovine mastitis clinical isolates. Type of series: cell-based. Particulars: MVM2 platform, FIG. 32. The text has this:
Bovine with mastitis disease was also used to test the MVM^2 platform for deciphering their antimicrobial resistant/susceptibility profile. These antibiotics were chosen to investigate the most common and important antibiotics' mechanisms of action, including the disruption of bacterial cell wall and membrane synthesis, binding to RNA/DNA and interrupting nucleic acid replication, and inhibition of protein synthesis by binding to ribosome. FIG. 32 contains the following information: (i) the type of bacteria and tested antibiotic can be found at the left and right sides, respectively; (ii) each row includes 37 squares, as labeled at the top and have been categorized in 4 different categories—first square representing the microchamber as negative control (labeled with “N”), and every next twelve squares as respectively representing low, medium, and high positive ranges of antibiotic concentrations; (iii) the low, medium, and high ranges are included the concentration ranges of 0.1-1, 1-10, and 10-100 μg/mL; (iv) there are three types of squares: dark red, dark pink or light pink. If bacteria is susceptible to a specific antibiotic (e.g., E. coli/cefuroxime pair, see FIG. 32), below MIC (shown by dark pink color), bacteria can survive and grow causing more resazurin reduction (shown by dark red). At concentrations greater than the MIC, the bacterial growth stopped as shown by light pink color. The dark pink squares also show the microchambers which antimicrobial susceptibility was monitored at different trials. […].

In series [7] the test system is E. coli LF82, E. faecalis 44, and K. pneumoniae 578. Description: MVM2 antimicrobial R/S profile, isolates from ileal mucosa of human patients with Crohn's disease. Type of series: cell-based. Particulars: MVM2 platform, FIG. 9F.
Where [8] appears, read: Table 1, antimicrobial agents/drugs.

Turning to `CC1(C)S[C@@H]2[C@H](NC(=O)[C@H](N)c3ccccc3)C(=O)N2[C@H]1C(=O)O` [D-(−)-α-Aminobenzylpenicillin], the susceptibility/resistance outcome in the series with E. coli 541-15 [1] is on record as “resistance”; with E. coli LF82, “resistance”; with E. coli 541-15 [3] (MVM2 platform, 0.1-100 μg/mL, 4 h) it was “resistance”. Moreover, the Molar volume in series [2] (setting [8]) was 239.3 ± 5.0 cm^3.

As to `O=C(CO)[C@@H](O)[C@H](O)[C@H](O)CO` [D-fructose], the “outcome (sensitivity)” value in series [4] was “not sensitive”. The sensitivity/resistance result with WT strain is recorded as “resistant”; in the series on yrKHK strain it was “sensitive”. Moreover, the Molar volume in series [2] (Table 3, antifungal drugs and other molecules) is 113.3 cm^3. Besides, in series [5] (0.007-7 wt %), the “binary Yes/No sensitivity response” value is on record as “Yes”. Also, in series [5] (10 h), the critical sensitivity concentration came to 1.13 wt %. Besides, the “concentration range within which yeast growth is stopped” value in [5] (microchambers R8-R12, 10 h) is given as 0.7-1.113 wt %.

Consider `CCC[C@@H]1C[C@@H](C(=O)N[C@@H]([C@H]2O[C@H](SC)[C@H](O)[C@@H](O)[C@H]2O)[C@@H](C)O)N(C)C1` [Lincomycin], for which, in the series with E. coli, the susceptibility/resistance outcome is on record as “resistance”. Moreover, the Molar volume in series [2] (setting [8]) was 313.2 ± 5.0 cm^3. In series [6], the “effectiveness among tested antibiotics” value is “not effective”.

Turning to `CCn1cc(C(=O)O)c(=O)c2ccc(C)nc21` [Nalidixic acid], in series [6], the “effectiveness among tested antibiotics” value is recorded as “most effective”.

On to `CO/N=C(\C(=O)N[C@@H]1C(=O)N2C(C(=O)O)=C(COC(N)=O)CS[C@H]12)c1ccco1` [cefuroxime], for which the susceptibility/resistance outcome with E. coli is recorded as “susceptible”. The “effectiveness among tested antibiotics” value in [6] is given as “most effective”.

A word on the MIC: it is the lowest concentration that inhibits growth of the organism. Low values mean a more susceptible organism, high ones a less susceptible organism. As for Gentamicin, the “effectiveness among tested antibiotics” value in [7] and in series [6] was “most effective” throughout. In addition, the minimum inhibitory concentration (MIC) in the series on E. coli 541-15 [1] (n=5) was 3 ± 2 µg/mL; against E. coli 541-15 [3] (MVM2 platform, 4 h at 37° C., n=5), 2.82 ± 0.68 µg/mL. The susceptibility/resistance outcome with E. coli LF82 and in the series with E. coli 541-15 [3] was “susceptible” in each case.

As for Polymyxin B, the Molar volume in series [2] (setting [8]) was 941.8 ± 5.0 cm^3.

For the molecule “Reveromycin A [Reveromycin A (MFCD00912537)]”, the Molar volume in series [2] (setting [8]) is 542.2 ± 5.0 cm^3.

In the case of gramicidin s, the Molar volume in [2] (setting [8]) is reported as 919.5 ± 5.0 cm^3.

B1: Neocarzinostatin (protein, UniProt P0A3R9 35-147, looked up)
Neocarzinostatin: AAPTATVTPSSGLSDGTVVKVAGAGLQAGTAYDVGQCAWVDTGVLACNPADFSSVTADANGSASTSLTVRRSFEGFLFDGTRWGTVDCTTAACQVGLSDAAGNGPEGVAISFN
modifications: enediyne chromophore
Turning to B1, in [2] (setting [8]), the Molar volume is given as 434.9 ± 5.0 cm^3.

B2: Pegfilgrastim (protein, UniProt P09919 31-207, looked up)
Granulocyte …: TPLGPASSLPQSFLLKCLEQVRKIQGDGAALQEKLVSECATYKLCHPEELVLLGHSLGIPWAPLSSCPSQALQLAGCLSQLHSGLFLYQGLLQALEGISPELGPTLDTLQLDVADFATTIWQQMEELGMAPALQPTQGAMPAFASAFQRRAGGVLVASHLQSFLEVSYRVLRHLAQP
modifications: N-terminal methionine; PEG
In the case of B2, the Molar volume in series [2] (Table 2, anticancer drugs) was 252.4 ± 3.0 cm^3.
